Where a name gives a salt, the structure may show the parent alone. Read-outs that look alike come from different tables or passages of the source.
Columns and labels:
Format in all cases: cell-based
[1] = target: T1, human S1P5 receptor (S1PR5) (Homo sapiens, UniProt Q9H228); experiment: Intracellular Ca2+ release (method 1), agonist potency and efficacy, S1P5; details: for Emax: read-out: hS1P5 EMax
T1 construct: host or cells: CHO-K1
Procedure: (§1) Agonistic activity and efficacy of compounds was assessed in recombinant cells using method 1 described below.
(§2) Agonist potency and efficacy were assessed by measurement of intracellular Ca^2+ release. Recombinant CHO-K1 cells (Euroscreen, Brussels, Belgium) expressing human S1PR5, S1PR1, S1PR3 or S1PR4 receptors, aequorin, and GTP binding protein Gq/i5 were cultured using a medium containing nutrient mixture F-12 Ham (Sigma-Aldrich) with 10% FBS, and 100 μg/mL gentamicin and equilibrated at 5% CO2.
(§3) 15,000 cells in 20 μL medium were seeded into Biocoat poly-D-Lysine coated 384 well plates (Becton Dickinson #35-6663) and grown to 95% confluency after 24 h.
(§4) Culture medium was replaced by an assay buffer consisting of HBBS with Ca^2+ and Mg^2+ (Invitrogen #14025-050), 20 mmol/L Hepes (Sigma-Aldrich #H-3375), 2.5 mmol/L probenecid (Sigma-Aldrich #P-8761, and 0.1% BSA (Sigma-Aldrich #A-7030) pH 7.4. The Calcium 5 no-wash FLIPR assay kit (Molecular Devices #5000625) was performed as described in the kit instructions. Cells were incubated with Calcium 5 dye for 1 h at 37° C., 5% CO2 in the dark. After 45 min adaptation to RT assessment of agonist stimulation of intracellular Ca^2+ release was performed by addition of test compounds at various concentrations obtained by serial dilution. Phospho-fingolimod was used as positive control and reference agonist (intrinsic activity 100%).
(§5) Agonism of test compounds at the human S1Px receptors were characterized by the EC50 values (potencies) deduced from a nonlinear 4 parametric logistic curve fit to the measured fluorescence data after normalization to the lower and upper plateaus of the fitted reference agonist's (phospho-fingolimod)effect curve and by their efficacy (Emax) values represented by their maximum achievable effects in % of the reference agonist's efficacy, which is defined as an Emax of 100%.

[2] = target: T2, human S1P1 receptor (S1PR1) (Homo sapiens, UniProt P21453); experiment: Intracellular Ca2+ release (method 1), agonist potency, S1P1; details: CHO-K1 cells expressing human S1PR1; cells given as bound
T2 construct: host or cells: CHO-K1
T2 sequence (P21453 whole entry): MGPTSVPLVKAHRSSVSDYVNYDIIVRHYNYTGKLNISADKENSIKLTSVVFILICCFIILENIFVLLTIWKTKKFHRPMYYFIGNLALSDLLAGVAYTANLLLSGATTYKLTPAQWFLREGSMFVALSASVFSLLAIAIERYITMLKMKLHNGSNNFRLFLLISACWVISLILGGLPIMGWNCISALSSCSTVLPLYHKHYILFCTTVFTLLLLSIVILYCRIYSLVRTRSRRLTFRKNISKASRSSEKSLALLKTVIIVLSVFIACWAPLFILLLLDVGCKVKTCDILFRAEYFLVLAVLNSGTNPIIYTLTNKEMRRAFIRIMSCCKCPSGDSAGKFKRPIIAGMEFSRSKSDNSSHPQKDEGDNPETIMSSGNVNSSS
Procedure: as §1, §2, §3, §4, §5

[3] = target: T3, human S1P3 receptor (S1PR3) (Homo sapiens, UniProt Q99500); experiment: Intracellular Ca2+ release (method 1), agonist potency, S1P3
T3 construct: host or cells: CHO-K1
T3 sequence (Q99500 whole entry): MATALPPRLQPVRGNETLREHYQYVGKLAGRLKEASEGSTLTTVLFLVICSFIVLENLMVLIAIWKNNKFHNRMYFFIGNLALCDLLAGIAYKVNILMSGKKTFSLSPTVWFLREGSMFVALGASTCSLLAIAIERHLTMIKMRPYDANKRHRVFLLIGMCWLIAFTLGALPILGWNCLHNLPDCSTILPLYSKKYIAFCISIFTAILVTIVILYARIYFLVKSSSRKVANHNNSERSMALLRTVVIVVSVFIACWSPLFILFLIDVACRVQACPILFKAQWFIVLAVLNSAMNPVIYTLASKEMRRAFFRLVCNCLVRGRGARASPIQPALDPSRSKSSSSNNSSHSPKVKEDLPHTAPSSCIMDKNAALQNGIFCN
Procedure: as §1, §2, §3, §4, §5

[4] = target: T4, human S1P4 receptor (S1PR4) (Homo sapiens, UniProt O95977); experiment: Intracellular Ca2+ release (method 1), agonist potency, S1P4; details: CHO-K1 cells expressing human S1PR4
T4 construct: host or cells: CHO-K1
T4 sequence (O95977 1-384): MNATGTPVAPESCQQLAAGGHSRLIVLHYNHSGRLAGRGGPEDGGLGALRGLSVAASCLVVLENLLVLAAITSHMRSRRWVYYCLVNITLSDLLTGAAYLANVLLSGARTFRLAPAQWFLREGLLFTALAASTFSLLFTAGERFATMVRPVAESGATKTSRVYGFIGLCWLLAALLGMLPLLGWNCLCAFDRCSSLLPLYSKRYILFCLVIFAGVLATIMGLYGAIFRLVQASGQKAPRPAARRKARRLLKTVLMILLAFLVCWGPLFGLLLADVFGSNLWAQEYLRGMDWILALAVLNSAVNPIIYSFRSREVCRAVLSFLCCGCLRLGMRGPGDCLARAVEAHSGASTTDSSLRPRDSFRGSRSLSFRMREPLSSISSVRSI
Procedure: as §1, §2, §3, §4, §5

[5] = maximum effect in % of reference agonist phospho-fingolimod (100%)
[6] = recombinant CHO-K1 cells expressing human S1PR5, aequorin, Gq/i5, Ca2+ release, read-out: S1P5 EC50 range
[7] = CHO-K1 cells expressing human S1PR3
[8] = text value for reference compounds lacking the spiro-linked group, read-out: S1P5 EC50
[9] = value for reference compounds, % of phospho-fingolimod efficacy

T1 sequence (Q9H228 whole entry): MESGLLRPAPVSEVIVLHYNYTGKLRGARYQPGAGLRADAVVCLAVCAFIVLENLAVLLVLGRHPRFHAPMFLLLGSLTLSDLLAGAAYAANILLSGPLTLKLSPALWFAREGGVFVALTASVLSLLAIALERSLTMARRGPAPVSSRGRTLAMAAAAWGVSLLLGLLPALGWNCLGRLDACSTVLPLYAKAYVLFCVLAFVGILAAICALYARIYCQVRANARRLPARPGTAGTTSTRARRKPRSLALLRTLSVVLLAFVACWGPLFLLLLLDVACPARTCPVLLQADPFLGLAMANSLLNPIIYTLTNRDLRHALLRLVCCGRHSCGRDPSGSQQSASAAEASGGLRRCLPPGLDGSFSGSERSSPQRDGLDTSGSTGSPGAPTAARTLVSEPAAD

| Structure (SMILES) | Emax [1, 5] [%] | EC50 [1, 6] [µM] | EC50 [2] [µM] | EC50 [3, 7] [µM] | EC50 ([4]; cells given as bound) [µM] | EC50 [4] [µM] | EC50 [1, 8] [µM] | Emax [1, 9] [%] | EC50 ([3]; value for reference compounds) [µM] |
| --- | --- | --- | --- | --- | --- | --- | --- | --- | --- |
| O=C(O)CCCN1Cc2ccc(C#Cc3ccc(OC(F)(F)F)c(F)c3)cc2C2(CC2)C1 [Compound 47, 4-(6′-((3-fluoro-4-(trifluoromethoxy)phenyl)ethynyl)-1′H-spiro[cyclopropane-1,4′-isoquinolin]-2′(3′H)-yl)butanoic acid] | > 100 | < 0.01 | > 1 | > 1 | > 1 |  |  |  |  |
| O=C(O)CCCN1Cc2ccc(OCc3ccc(Cl)c(Cl)c3)cc2C2(CC2)C1 [Compound 26, 4-(6′-((3,4-Dichlorobenzyl)oxy)-1′H-spiro[cyclopropane-1,4′-isoquinolin]-2′(3′H)-yl)butanoic acid] | 50 to 100 | 0.01 to 0.1 | > 1 | > 1 |  | 0.01 to 0.1 |  |  |  |
| O=C(O)CCN1Cc2ccc(C#Cc3ccccc3)cc2C2(CC2)C1 [Compound 39, 3-(6′-(phenylethynyl)-1′H-spiro[cyclopropane-1,4′-isoquinolin]-2′(3′H)-yl)propanoic acid acetic acid salt (1:1)] | 50 to 100 | 0.1 to 1 | > 1 | > 1 | > 1 |  |  |  |  |
| O=C(O)CCCN1Cc2ccc(OCc3cccc(OC(F)(F)F)c3)cc2C2(CC2)C1 [Compound 20, 4-(6′-((3-(Trifluoromethoxy)benzyl)oxy)-1′H-spiro[cyclopropane-1,4′-isoquinolin]-2′(3′H)-yl)butanoic acid] | < 50 | 0.01 to 0.1 | > 1 | > 1 |  | 0.1 to 1 |  |  |  |
| O=C(O)CCN1Cc2ccc(C#Cc3ccc(F)cc3)cc2C2(CC2)C1 [Compound 41, 3-(6′-((4-fluorophenyl)ethynyl)-1′H-spiro[cyclopropane-1,4′-isoquinolin]-2′(3′H)-yl)propanoic acid acetic acid salt (1:1)] | < 50 | 1 to 10 | > 1 | > 1 | > 1 |  |  |  |  |
| O=C(O)CCN1Cc2ccc(C#Cc3cccc(Cl)n3)cc2C2(CC2)C1 [Compound 40, 3-(6′-((6-chloropyridin-2-yl)ethynyl)-1′H-spiro[cyclopropane-1,4′-isoquinolin]-2′(3′H)-yl)propanoic acid acetic acid salt (1:1)] | 50 to 100 | 0.1 to 1 | > 1 | > 1 |  | 0.1 to 1 |  |  |  |
| O=C(O)CCN1CCc2cc(C#Cc3cccc(F)c3F)ccc2C1 [Reference compound 1, 3-(6-((2,3-difluorophenyl)ethynyl)-3,4-dihydroisoquinolin-2(1H)-yl)propanoic acid, reference compound] |  |  |  |  |  |  | 0.029 | 60 | > 1 |
| O=C(O)CCN1CCc2cc(C#Cc3c(Cl)cccc3Cl)ccc2C1 [Reference compound 2, 3-(6-((2,6-dichlorophenyl)ethynyl)-3,4-dihydroisoquinolin-2 (1H)-yl)propanoic acid, reference compound] |  |  |  |  |  |  | 0.0192 | 41 | > 1 |
| CC(CC(=O)O)CN1Cc2ccc(C#Cc3cccc(F)c3F)cc2C2(CC2)C1 (stereo not drawn) [Compound 66, 4-(6′-((2,3-difluorophenyl)ethynyl)-1′H-spiro[cyclopropane-1,4′-isoquinolin]-2′(3′H)-yl)-3-methylbutanoic acid] | 50 to 100 | 0.1 to 1 | > 1 |  | > 1 |  |  |  |  |
| CCOc1ccc(C#Cc2ccc3c(c2)C2(CC2)CN(CCCC(=O)O)C3)nc1 [Compound 54, 4-(6′-((5-ethoxypyridin-2-yl)ethynyl)-1′H-spiro[cyclopropane-1,4′-isoquinolin]-2′(3′H)-yl)butanoic acid] | 50 to 100 | 1 to 10 | > 1 |  | > 1 |  |  |  |  |
| O=C(O)CCCN1Cc2ccc(OCc3ccc(F)cc3)cc2C2(CC2)C1 [Compound 17, 4-(6′-((4-Fluorobenzyl)oxy)-1′H-spiro[cyclopropane-1,4′-isoquinolin]-2′(3′H)-yl)butanoic acid] | 50 to 100 | 0.1 to 1 | > 1 |  | > 1 |  |  |  |  |
| CCOc1ccc(C#Cc2ccc3c(c2)C2(CC2)CN(CCCC(=O)O)C3)c(C)n1 [Compound 53, 4-(6′-((6-ethoxy-2-methylpyridin-3-yl)ethynyl)-1′H-spiro[cyclopropane-1,4′-isoquinolin]-2′(3′H)-yl)butanoic acid] | 50 to 100 | 0.1 to 1 | > 1 |  | > 1 |  |  |  |  |
| CCOc1ncc(C#Cc2ccc3c(c2)C2(CC2)CN(CCCC(=O)O)C3)cc1F [Compound 51, 4-(6′-((6-ethoxy-5-fluoropyridin-3-yl)ethynyl)-1′H-spiro[cyclopropane-1,4′-isoquinolin]-2′(3′H)-yl)butanoic acid] | 50 to 100 | 0.1 to 1 | > 1 |  | > 1 |  |  |  |  |
| CC(CC(=O)O)CN1Cc2ccc(C#Cc3ccc(OC4CCCC4)cc3)cc2C2(CC2)C1 (stereo not drawn) [Compound 64, 4-(6′-((4-(cyclopentyloxy)phenyl)ethynyl)-1′H-spiro[cyclopropane-1,4′-isoquinolin]-2′(3′H)-yl)-3-methylbutanoic acid] | > 100 | 0.01 to 0.1 | > 1 |  | > 1 |  |  |  |  |
| CCOc1ccc(C#Cc2ccc3c(c2)C2(CC2)CN(CC(C)CC(=O)O)C3)cc1 (stereo not drawn) [Compound 63, 4-(6′-((4-ethoxyphenyl)ethynyl)-1′H-spiro[cyclopropane-1,4′-isoquinolin]-2′(3′H)-yl)-3-methylbutanoic acid] | 50 to 100 | 0.01 to 0.1 | > 1 |  | > 1 |  |  |  |  |
| O=C(O)CN1Cc2ccc(OCc3c(Cl)cccc3Cl)cc2C2(CC2)C1 [Compound 12, 2-(6′-((2,6-Dichlorobenzyl)oxy)-1′H-spiro[cyclopropane-1,4′-isoquinolin]-2′(3′H)-yl)acetic acid] | 50 to 100 | 0.1 to 1 | > 1 |  |  | 0.1 to 1 |  |  |  |
| CC(C)Oc1ccc(C#Cc2ccc3c(c2)C2(CC2)CN(C2CC(C(=O)O)C2)C3)nc1 (stereo not drawn) [Compound 70, 3-(6′-((5-isopropoxypyridin-2-yl)ethynyl)-1′H-spiro[cyclopropane-1,4′-isoquinolin]-2′(3′H)-yl)cyclobutanecarboxylic acid] | 50 to 100 | 0.01 to 0.1 | > 1 |  | > 1 |  |  |  |  |
| CC(CC(=O)O)CN1Cc2ccc(C#Cc3ccc(C(C)C)cc3)cc2C2(CC2)C1 (stereo not drawn) [Compound 60, 4-(6′-((4-isopropylphenyl)ethynyl)-1′H-spiro[cyclopropane-1,4′-isoquinolin]-2′(3′H)-yl)-3-methylbutanoic acid] | 50 to 100 | < 0.01 | > 1 |  | > 1 |  |  |  |  |
| CC(CC(=O)O)CN1Cc2ccc(C#Cc3ccc(OC(F)(F)F)c(F)c3)cc2C2(CC2)C1 (stereo not drawn) [Compound 61, 4-(6′-((3-fluoro-4-(trifluoromethoxy)phenyl)ethynyl)-1′H-spiro[cyclopropane-1,4′-isoquinolin]-2′(3′H)-yl)-3-methylbutanoic acid] | 50 to 100 | < 0.01 | > 1 |  | > 1 |  |  |  |  |
| CCOc1ccc(C#Cc2ccc3c(c2)C2(CC2)CN(CCCC(=O)O)C3)cn1 [Compound 50, 4-(6′-((6-ethoxypyridin-3-yl)ethynyl)-1′H-spiro[cyclopropane-1,4′-isoquinolin]-2′(3′H)-yl)butanoic acid] | 50 to 100 | 0.1 to 1 | > 1 |  | > 1 |  |  |  |  |
